In patent US12606528B2, “Methods and materials for inhibiting NF-kB activity” (University of Pittsburgh - Of the Commonwealth System of …, priority 2019, dated 2026):
Like-named read-outs stand apart in the source and are kept apart here.

Columns and labels:
NF-κB = NF-κB assay: THP1-NF-κB-LUC cells, LPS-stimulated secreted luciferase; assay type: cell-based; details: THP1-NF-κB-LUC cells, read-out: IC50 (NF-κB assay)
Procedure, shortened: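 THP1-NF-κB-LUC cells (25k/well) were pretreated with compounds for 2 h, then stimulated with LPS (10 ng/mL) for 18 h. Secreted luciferase was measured and normalized to vehicle, and IC50 was fitted from the concentration series.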

TNF release = assay: TNF assay: TNF release from LPS-stimulated human PBMCs (TNF ELISA); assay type: cell-based; details: PBMC, read-out: IC50 (TNF assay)
Procedure, shortened: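 Human PBMCs at 10k/well pretreated with compound dilutions 2 h, then stimulated with LPS (10 ng/mL) for 18 h. TNF in supernatants quantified by ELISA; IC50 for inhibition of TNF release fitted from concentration–response.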

[1] = LPS-stimulated human PBMCs, TNF ELISA
[2] = compounds 2 hours before LPS (10 ng/mL) for 18 hours, secreted luciferase
[3] = human PBMCs, compounds 2 hours before LPS (10 ng/ml) for 18 hours, supernatant TNF ELISA

Row | SMILES | IC50 (NF-κB; LPS-stimulated) | IC50 (TNF release; [1]) | IC50 (NF-κB; [2]) | IC50 (TNF release; [3])
1 | CC(C)[S+]([O-])c1snc(-c2ccc(F)cc2)c1S(=O)(=O)c1ccc(Cl)cc1 (stereo not shown) [BC19727] | 1 to 10 µM | 1 to 10 µM | – | –
2 | CC(C)S(=O)(=O)c1snc(-c2ccc(F)cc2)c1S(=O)(=O)c1ccc(Cl)cc1 [BC19728] | > 10 µM | 1 to 10 µM | – | –
3 | CC1Oc2cc(S(=O)(=O)Nc3ccc(C#N)cc3)c(Cl)cc2NC1=O (stereo not shown) [BC19729] | – | – | 0.1 to 1 µM | > 10 µM
4 | CC1Oc2c(cc(Cl)cc2S(=O)(=O)Nc2ccc(C#N)cc2)NC1=O (stereo not shown) [BC19730] | – | – | < 0.1 µM | > 10 µM
5 | CCC1Oc2cc(S(=O)(=O)Nc3ccc(F)cc3)c(Cl)cc2NC1=O (stereo not shown) [BC19731] | – | – | 0.1 to 1 µM | > 10 µM
6 | CCC1Oc2c(cc(Cl)cc2S(=O)(=O)Nc2ccc(F)cc2)NC1=O (stereo not shown) [BC19732] | – | – | < 0.1 µM | 1 to 10 µM
7 | CCC1Oc2cc(S(=O)(=O)Nc3ccc(OC(F)(F)F)cc3)c(Cl)cc2NC1=O (stereo not shown) [BC19733] | – | – | < 0.1 µM | > 10 µM
8 | CCC1Oc2c(cc(Cl)cc2S(=O)(=O)Nc2ccc(OC(F)(F)F)cc2)NC1=O (stereo not shown) [BC19734] | – | – | < 0.1 µM | > 10 µM
9 | CCC1Oc2cc(S(=O)(=O)Nc3ccc(F)c(F)c3)c(Cl)cc2NC1=O (stereo not shown) [BC19735] | – | – | < 0.1 µM | > 10 µM
10 | CCC1Oc2c(cc(Cl)cc2S(=O)(=O)Nc2ccc(F)c(F)c2)NC1=O (stereo not shown) [BC19736] | – | – | < 0.1 µM | > 10 µM
11 | CCC1Oc2cc(S(=O)(=O)Nc3ccccc3)c(Cl)cc2NC1=O (stereo not shown) [BC19737] | – | – | 0.1 to 1 µM | > 10 µM
12 | CCC1Oc2c(cc(Cl)cc2S(=O)(=O)Nc2ccccc2)NC1=O (stereo not shown) [BC19738] | – | – | < 0.1 µM | > 10 µM
13 | CCC1Oc2cc(S(=O)(=O)Nc3ccc(Cl)cc3)c(Cl)cc2NC1=O (stereo not shown) [BC19739] | – | – | < 0.1 µM | > 10 µM
14 | CCC1Oc2c(cc(Cl)cc2S(=O)(=O)Nc2ccc(Cl)cc2)NC1=O (stereo not shown) [BC19740] | – | – | < 0.1 µM | > 10 µM
15 | CCc1ccc(NS(=O)(=O)c2cc3c(cc2Cl)NC(=O)C(CC)O3)cc1 (stereo not shown) [BC19741] | – | – | < 0.1 µM | > 10 µM
16 | CCc1ccc(NS(=O)(=O)c2cc(Cl)cc3c2OC(CC)C(=O)N3)cc1 (stereo not shown) [BC19742] | – | – | < 0.1 µM | 1 to 10 µM
17 | CCC1Oc2c(cc(Cl)cc2S(=O)(=O)Nc2ccc(OC)c(Cl)c2)NC1=O (stereo not shown) [BC19744] | – | – | < 0.1 µM | 1 to 10 µM
18 | CCC1Oc2c(cc(Cl)cc2S(=O)(=O)Nc2ccc(C)c(Cl)c2)NC1=O (stereo not shown) [BC19746] | – | – | < 0.1 µM | > 10 µM

Row | SMILES | IC50 (NF-κB; LPS-stimulated) | IC50 (TNF release; [1]) | IC50 (NF-κB; [2]) | IC50 (TNF release; [3])
19 | CCC1Oc2c(cc(Cl)cc2S(=O)(=O)Nc2ccc(F)cc2F)NC1=O (stereo not shown) [BC19748] | – | – | < 0.1 µM | > 10 µM
20 | CCc1cccc(NS(=O)(=O)c2cc3c(cc2Cl)NC(=O)C(CC)O3)c1 (stereo not shown) [BC19749] | – | – | 0.1 to 1 µM | > 10 µM
21 | CCc1cccc(NS(=O)(=O)c2cc(Cl)cc3c2OC(CC)C(=O)N3)c1 (stereo not shown) [BC19750] | – | – | < 0.1 µM | > 10 µM
22 | CCC1Oc2cc(S(=O)(=O)Nc3cccc(Cl)c3)c(Cl)cc2NC1=O (stereo not shown) [BC19751] | – | – | 0.1 to 1 µM | > 10 µM
23 | CCC1Oc2c(cc(Cl)cc2S(=O)(=O)Nc2cccc(Cl)c2)NC1=O (stereo not shown) [BC19752] | – | – | < 0.1 µM | > 10 µM
24 | CCC1Oc2cc(S(=O)(=O)Nc3ccc(C)cc3)c(Cl)cc2NC1=O (stereo not shown) [BC19753] | – | – | < 0.1 µM | > 10 µM
25 | CCC1Oc2c(cc(Cl)cc2S(=O)(=O)Nc2ccc(C)cc2)NC1=O (stereo not shown) [BC19754] | – | – | < 0.1 µM | 1 to 10 µM
26 | CCC1Oc2cc(S(=O)(=O)Nc3ccc(F)cc3Cl)c(Cl)cc2NC1=O (stereo not shown) [BC19755] | – | – | 1 to 10 µM | > 10 µM
27 | CCC1Oc2c(cc(Cl)cc2S(=O)(=O)Nc2ccc(F)cc2Cl)NC1=O (stereo not shown) [BC19756] | – | – | < 0.1 µM | > 10 µM
28 | CC(C)CC1Oc2c(cc(Br)cc2S(=O)(=O)Nc2ccc(OC(F)(F)F)cc2)NC1=O (stereo not shown) [BC19757] | – | – | < 0.1 µM | > 10 µM
29 | CC(C)CC1Oc2cc(S(=O)(=O)Nc3ccc(OC(F)(F)F)cc3)c(Br)cc2NC1=O (stereo not shown) [BC19758] | – | – | 0.1 to 1 µM | > 10 µM
30 | CC(C)CC1Oc2c(cc(Br)cc2S(=O)(=O)Nc2ccc(F)c(F)c2)NC1=O (stereo not shown) [BC19759] | – | – | < 0.1 µM | > 10 µM
31 | CC(C)CC1Oc2cc(S(=O)(=O)Nc3ccc(F)c(F)c3)c(Br)cc2NC1=O (stereo not shown) [BC19760] | – | – | < 0.1 µM | > 10 µM
32 | CC(C)CC1Oc2c(cc(Br)cc2S(=O)(=O)Nc2ccccc2)NC1=O (stereo not shown) [BC19761] | – | – | 0.1 to 1 µM | > 10 µM
33 | CC(C)CC1Oc2cc(S(=O)(=O)Nc3ccccc3)c(Br)cc2NC1=O (stereo not shown) [BC19762] | – | – | 0.1 to 1 µM | > 10 µM
34 | CCc1ccc(NS(=O)(=O)c2cc(Br)cc3c2OC(CC(C)C)C(=O)N3)cc1 (stereo not shown) [BC19763] | – | – | 0.1 to 1 µM | 1 to 10 µM
35 | CCc1ccc(NS(=O)(=O)c2cc3c(cc2Br)NC(=O)C(CC(C)C)O3)cc1 (stereo not shown) [BC19764] | – | – | 1 to 10 µM | > 10 µM
